As a reminder, the MIC is the smallest concentration in the dilution series that meets the test's criterion for growth inhibition. High values mean a less susceptible organism, low ones a more susceptible organism.

Test systems include Escherichia coli; Bacillus cereus; Escherichia coli K-12; Escherichia coli BW25113.
Holding throughout (assay): ≥ marks a high value that may be exact or a test limit, other limits are often not marked, values filed in µg/mL are converted to µM
The subject of assay [1] is Candida albicans NCPF 1467.
Assay [2] deals with Escherichia coli NCTC 10418.
Assay [3] concerns Staphylococcus aureus NCTC 10788.
The subject of assay [4] is Pseudomonas aeruginosa ATCC 27853.
In assay [5] the test system is Enterococcus faecalis NCTC 12697.
In assay [6] the test system is Staphylococcus aureus NCTC 12493.
Assay [7] has as its system Staphylococcus aureus USA 300.
In assay [8] the test system is Staphylococcus aureus ATCC BAA-1556.
Assay [9] relates to Micrococcus luteus ATCC 4698.

≈ marks a conversion by molar mass, not a printed value. Where “and” joins values, the source holds several entries; their conditions need not be identical. Identical values can stand only once. Bounds are passed on as bounds.

With `CC[C@H](C)[C@H](NC(=O)[C@H](CC(C)C)NC(=O)[C@H](CCCN=C(N)N)NC(=O)[C@H](CCC(=O)O)NC(=O)[C@H](CC(C)C)NC(=O)[C@@H](NC(=O)[C@@H]1CCCN1C(=O)[C@H](CC(C)C)NC(=O)[C@H](C)NC(=O)[C@H](Cc1ccccc1)NC(=O)[C@H](C)NC(=O)[C@H](C)NC(=O)[C@@H](NC(=O)[C@H](CCCCN)NC(=O)CNC(=O)[C@@H](NC(=O)CNC(=O)[C@@H](NC(=O)[C@H](C)NC(=O)[C@H](C)N)[C@@H](C)O)[C@@H](C)O)[C@@H](C)O)C(C)C)C(=O)O` [AATGTGKTAAFALPVLERLI], the minimal inhibitory concentration (MIC) in the assay on Escherichia coli was more than 128 µM; with Bacillus cereus it was not below 128 µM. Consider `CC[C@H](C)[C@H](NC(=O)[C@H](C)NC(=O)[C@H](CCCCN)NC(=O)[C@@H]1CCCN1C(=O)[C@@H](NC(=O)[C@H](CC(C)C)NC(=O)[C@H](CCCCN)NC(=O)[C@H](Cc1ccccc1)NC(=O)[C@H](CC(C)C)NC(=O)[C@@H](N)Cc1ccccc1)[C@@H](C)CC)C(=O)N[C@@H](CCCCN)C(=O)NCC(=O)N[C@@H](CC(C)C)C(=O)N[C@@H](CC(C)C)C(=O)N[C@@H](CCCCN)C(=O)N[C@@H](C)C(=O)N[C@@H](Cc1ccccc1)C(=O)N[C@H](C=O)CCCCN` [FLFKLIPKAIKGLLKAFK], for which the MIC in assay [1] worked out at 4 µM (≈ 8.24 µg/mL); in assay [2], 8 µM (≈ 16.5 µg/mL); in [3], 4 µM (≈ 8.24 µg/mL). `CC[C@H](C)[C@H](NC(=O)CNC(=O)CNC(=O)[C@H](C)NC(=O)[C@@H](NC(=O)[C@H](CCCCN)NC(=O)[C@@H]1CCCN1C(=O)[C@@H](NC(=O)[C@H](CCSC)NC(=O)[C@H](CO)NC(=O)[C@H](CC(C)C)NC(=O)[C@@H](N)Cc1ccccc1)[C@@H](C)CC)[C@@H](C)CC)C(=O)N[C@@H](C)C(=O)N[C@@H](CO)C(=O)N[C@@H](CC(C)C)C(=O)N[C@H](C(=O)N[C@@H](CCCCN)C(=O)N[C@@H](CC(N)=O)C(=O)N[C@@H](CC(C)C)C(N)=O)C(C)C` [FLSMIPKIAGGIASLVKNL]: the results for the minimal inhibitory concentration (MIC) in assay [1], in assay [2] and in [3] were 8.11 µM (≈ 16 µg/mL), not below 64.9 µM and 4.06 µM (≈ 8 µg/mL), respectively. With `CC[C@H](C)[C@H](NC(=O)[C@H](Cc1ccc(O)cc1)NC(=O)[C@H](CC(C)C)NC(=O)[C@@H](N)Cc1ccccc1)C(=O)N[C@H](C(=O)N[C@@H](C)C(=O)N[C@@H](CCCCN)C(=O)N[C@@H](CC(C)C)C(=O)N[C@@H](CC(C)C)C(=O)N[C@@H](CO)C(=O)NCC(=O)N[C@@H](CC(C)C)C(=O)N[C@@H](CC(C)C)C(N)=O)C(C)C` [FLYIVAKLLSGLL], the minimal inhibitory concentration (MIC) was more than 512 µM in assay [4]; 2 µM (≈ 2.9 µg/mL) in assay [1]; 2 µM (≈ 2.9 µg/mL) in [5]; not below 512 µM in assay [2]; 1 µM (≈ 1.45 µg/mL) in assay [3]; 2 µM (≈ 2.9 µg/mL) in assay [6].

`CC[C@H](C)[C@H](NC(=O)[C@H](C)NC(=O)CNC(=O)[C@@H](NC(=O)[C@@H](N)Cc1ccccc1)C(C)C)C(=O)N[C@@H](C)C(=O)N[C@@H](C)C(=O)N[C@@H](C)C(=O)N[C@@H](CC(C)C)C(=O)N1CCC[C@H]1C(=O)N[C@@H](Cc1cnc[nH]1)C(=O)N[C@H](C(=O)N[C@H](C(=O)N[C@@H](CO)C(=O)N[C@@H](C)C(=O)N[C@H](C(=O)N[C@@H](CCCCN)C(=O)N[C@@H](CC(N)=O)C(=O)N[C@@H](C)C(=O)N[C@@H](CC(C)C)C(=O)O)[C@@H](C)CC)[C@@H](C)CC)C(C)C` [FVGAIAAALPHVISAIKNAL]: the minimum inhibitory concentration (MIC) was not below 120 µM in assay [1] and 16 µM (≈ 31.6 µg/mL) in [3]. `CC[C@H](C)[C@H](NC(=O)[C@H](CCCN=C(N)N)NC(=O)[C@H](CCC(N)=O)NC(=O)[C@@H](NC(=O)[C@@H](NC(=O)[C@H](CCCN=C(N)N)NC(=O)[C@H](CCCCN)NC(=O)[C@H](Cc1ccccc1)NC(=O)CN)[C@@H](C)CC)C(C)C)C(=O)N[C@@H](CCCCN)C(=O)N[C@@H](CC(=O)O)C(=O)N[C@@H](Cc1ccccc1)C(=O)N[C@@H](CC(C)C)C(=O)N[C@@H](C)C(=O)N[C@@H](CC(N)=O)C(=O)N[C@@H](CC(C)C)C(=O)N[C@H](C(N)=O)C(C)C` [GFKRIVQRIKDFLANLV]: the MIC is 7.5 µM and 3.1 µM in [7]; 15 µM (≈ 30.2 µg/mL) in the assay with Escherichia coli K-12. In [8], `CC(C)C[C@H](NC(=O)[C@H](CC(C)C)NC(=O)[C@H](CC(C)C)NC(=O)[C@H](CC(C)C)NC(=O)[C@H](CC(C)C)NC(=O)[C@H](CC(C)C)NC(=O)[C@H](CCCCN)NC(=O)[C@H](CC(C)C)NC(=O)[C@@H](N)CCCCN)C(N)=O` [KLKLLLLLL] had a minimal inhibitory concentration (MIC) not below 100 µM. `CC[C@H](C)[C@H](NC(=O)[C@H](Cc1c[nH]c2ccccc12)NC(=O)[C@H](CCCN=C(N)N)NC(=O)[C@H](C)NC(=O)[C@H](Cc1c[nH]c2ccccc12)NC(=O)[C@@H](N)CCCCN)C(=O)N[C@@H](CCCN=C(N)N)C(=O)N[C@@H](Cc1c[nH]c2ccccc12)C(=O)N[C@@H](CC(C)C)C(N)=O` [KWARWIRWL] registered an MIC in [8] of 12.5 µM (≈ 16.4 µg/mL). This counts as double-digit micromolar. For `CC[C@H](C)[C@H](NC(=O)[C@H](Cc1c[nH]c2ccccc12)NC(=O)[C@H](CCCN=C(N)N)NC(=O)[C@H](CCCN=C(N)N)NC(=O)[C@H](Cc1c[nH]c2ccccc12)NC(=O)[C@@H](N)CCCCN)C(=O)N[C@@H](CCCN=C(N)N)C(=O)N[C@@H](Cc1c[nH]c2ccccc12)C(=O)N[C@@H](C)C(N)=O` [KWRRWIRWA], the MIC in [8] came to 12.5 µM (≈ 17 µg/mL). As for `CC(C)C[C@H](NC(=O)[C@H](CC(C)C)NC(=O)[C@H](CCCCN)NC(=O)[C@H](CCCCN)NC(=O)[C@H](CC(C)C)NC(=O)[C@H](CC(C)C)NC(=O)[C@H](CC(C)C)NC(=O)[C@H](CC(C)C)NC(=O)[C@@H](N)CC(C)C)C(N)=O` [LLLLLKKLL], in assay [8], the MIC was not below 100 µM. For the molecule `CC[C@H](C)[C@H](NC(=O)[C@H](CCCN=C(N)N)NC(=O)[C@@H](N)CCCN=C(N)N)C(=O)N[C@@H](CCCN=C(N)N)C(=O)N[C@@H](Cc1ccccc1)C(=O)N[C@@H](CCCN=C(N)N)C(=O)N1CCC[C@H]1C(=O)N1CCC[C@H]1C(=O)N[C@@H](Cc1ccc(O)cc1)C(=O)N[C@@H](CC(C)C)C(=O)N1CCC[C@H]1C(=O)N[C@@H](CCCN=C(N)N)C(=O)N1CCC[C@H]1C(=O)NCC(=O)N[C@@H](CCCN=C(N)N)C(=O)N[C@@H](CCCN=C(N)N)C(=O)O` [RRIRFRPPYLPRPGRR], the MIC in the assay with Escherichia coli BW25113 was 4 µM (≈ 8.37 µg/mL).

Take `CC[C@H](C)[C@H](NC(=O)[C@@H]1CCCN1C(=O)[C@H](CCCN=C(N)N)NC(=O)[C@H](CCCN=C(N)N)NC(=O)[C@H](CCCN=C(N)N)NC(=O)[C@H](Cc1c[nH]c2ccccc12)NC(=O)[C@@H]1CCCN1C(=O)[C@H](CCCN=C(N)N)NC(=O)[C@H](CCCN=C(N)N)NC(=O)[C@H](CCCN=C(N)N)NC(=O)[C@@H](N)CCCN=C(N)N)C(=O)N[C@@H](CCCN=C(N)N)C(=O)N1CCC[C@H]1C(=O)N1CCC[C@H]1C(=O)N[C@@H](Cc1ccccc1)C(=O)N[C@@H](Cc1ccc(O)cc1)C(=O)N[C@@H](Cc1c[nH]c2ccccc12)C(=O)O` [RRRRPWRRRPIRPPFYW]: the MIC in the assay with Escherichia coli BW25113 worked out at 8 µM (≈ 19.6 µg/mL). Against the preceding molecule, the MIC is about 2-fold higher. Same read-out and setting: the value for `CC[C@H](C)[C@H](NC(=O)[C@@H]1CCCN1C(=O)[C@H](CCCN=C(N)N)NC(=O)[C@H](CCCN=C(N)N)NC(=O)[C@H](Cc1c[nH]c2ccccc12)NC(=O)[C@@H](N)CCCN=C(N)N)C(=O)N[C@@H](CCCN=C(N)N)C(=O)N[C@@H](CCCN=C(N)N)C(=O)N1CCC[C@H]1C(=O)N1CCC[C@H]1C(=O)N[C@H](C(=O)N[C@@H](CCCN=C(N)N)C(=O)N1CCC[C@H]1C(=O)N1CCC[C@H]1C(=O)N[C@@H](Cc1c[nH]c2ccccc12)C(=O)N[C@@H](Cc1ccc(O)cc1)C(=O)N1CCC[C@H]1C(=O)O)[C@@H](C)CC` [RWRRPIRRPPIRPPWYP] was 8 µM (≈ 18.4 µg/mL).

For `CC[C@H](C)[C@H](NC(=O)[C@@H]1CCCN1C(=O)[C@H](Cc1c[nH]c2ccccc12)NC(=O)[C@H](CCCN=C(N)N)NC(=O)[C@H](Cc1c[nH]c2ccccc12)NC(=O)[C@@H](N)CCCN=C(N)N)C(=O)N[C@@H](CCCN=C(N)N)C(=O)N[C@@H](CCCN=C(N)N)C(=O)N1CCC[C@H]1C(=O)N1CCC[C@H]1C(=O)N[C@H](C(=O)N[C@@H](CCCN=C(N)N)C(=O)N1CCC[C@H]1C(=O)N1CCC[C@H]1C(=O)N[C@@H](Cc1ccccc1)C(=O)N[C@@H](Cc1ccc(O)cc1)C(=O)N1CCC[C@H]1C(=O)O)[C@@H](C)CC` [RWRWPIRRPPIRPPFYP], in the assay on Escherichia coli BW25113, the MIC is 8 µM (≈ 18.3 µg/mL). `CC[C@H](C)[C@H](NC(=O)[C@H](CO)NC(=O)[C@H](CCCCN)NC(=O)[C@@H](N)CO)C(=O)N1CCC[C@H]1C(=O)NCC(=O)N[C@@H](CCCN=C(N)N)C(=O)N[C@@H](CO)C(=O)NCC(=O)O` [SKSIPGRSG] came in with a minimum inhibitory concentration (MIC) in assay [9] not below 75 µM. In assay [8], `CC(C)C[C@H](NC(=O)[C@H](Cc1c[nH]c2ccccc12)NC(=O)[C@H](Cc1c[nH]c2ccccc12)NC(=O)[C@H](CC(C)C)NC(=O)[C@H](Cc1c[nH]c2ccccc12)NC(=O)[C@H](CCCN=C(N)N)NC(=O)[C@H](CC(C)C)NC(=O)[C@H](Cc1c[nH]c2ccccc12)NC(=O)[C@@H](N)Cc1c[nH]c2ccccc12)C(N)=O` [WWLRWLWWL] came in with an MIC of 6.25 µM (≈ 9.02 µg/mL). Same read-out and setting: the value for `CC(C)C[C@H](NC(=O)[C@H](Cc1c[nH]c2ccccc12)NC(=O)[C@H](Cc1c[nH]c2ccccc12)NC(=O)[C@H](CC(C)C)NC(=O)[C@H](Cc1c[nH]c2ccccc12)NC(=O)[C@H](Cc1c[nH]c2ccccc12)NC(=O)[C@H](CC(C)C)NC(=O)[C@H](Cc1c[nH]c2ccccc12)NC(=O)[C@@H](N)Cc1c[nH]c2ccccc12)C(N)=O` [WWLWWLWWL] was not below 100 µM.

These data come from DBAASP.
